Assay results taken from patent publication US5030760A, “Tetrahydrophthalimides, and their production and use” (Sumitomo Chemical Company, Ltd., priority 1981, dated 1991).

Experiments:
jimsonweed = assay: Test Example 5, spraying over the top, herbicidal activity; type: in vivo, Datura stramonium; settings: sprayed over the top, 20 days
Experimental: (§1) The application of the tetrahydrophthalimides (I) as herbicides will be illustratively shown in the following Examples wherein the phytotoxicity to cultivated plants and the herbicidal activity on weeds were evaluated as follows: the aerial parts of the test plants were cut off and weighed (fresh weight); the percentage of the fresh weight of the treated plant to that of the untreated plant was calculated with the latter fresh weight taken as 100; and the crop damage and the herbicidal activity were evaluated by the standard given in the table below. The rating values of phytotoxicity, 0 and 1, and those of herbicidal effect, 5 and 4, are generally regarded as satisfactory to protect cultivated plants and control weeds, respectively. The rating values in the paddy field test alone were calculated from the dry weight of the test plants.
(§2) Plastic trays (35 cm×25 cm×15 cm) were filled with upland field soil, and the seeds of tall morningglory, velvetleaf, jimsonweed, sicklepod, hemp sesbania, prickly side, Johnsongrass, green foxtail and large crabgrass and the seeds of soybean were sown therein. A designed amount of the test compound formulated into a wettable powder according to Preparation Example 1 and dispersed in water was sprayed over the top by means of a small hand sprayer at a spray volume of 5 liters per are. After the spraying, the test plants were grown in greenhouse for 20 days, and phytotoxicity and herbicidal activity were examined.

barnyardgrass [1] = assay: Test Example 7, flooded paddy pot dripping, herbicidal activity; type: in vivo, Echinochloa crus-galli; settings: 3 weeks
Experimental: as §1
(§3) Wagner's pots (1/5000 are) were filled with paddy field soil and water was poured therein to make a flooded condition. Rice seedlings of the 3-leaf stage were transplanted and tubers of slender spikerush and arrowhead and the seeds of barnyardgrass, monochoria and broad-leaved weed were sowed therein and grown for 5 days. When germination occurs, a designed amount of the test compound formulated into an emulsifiable concentrate according to Preparation Example 2 was applied to the pots by dripping. The test plants were grown for a further 3 weeks, and herbicidal activity and phytotoxicity were examined. The herbicidal activity was evaluated in figures ranging from 0 to 5. The phytotoxicity to the crop plants was also indicated on the same standard as that of the herbicidal activity.

tall morningglory [2] = assay: Test Example 2, field foliar treatment, herbicidal activity; type: in vivo, Ipomoea purpurea; settings: 3 weeks
Experimental: as §1
(§4) Seeds of corn and broad-leaved weeds such as cocklebur, common purslane and tall morningglory were sown in the field as previously laid up in ridges, each ridge having an upper width of 1 m. At the time when the corn grew up to the 6-leaf stage and the broad-leaved weeds up to 2 to 5-leaf stages, a designed amount of the test compound formulated into an emulsifiable concentrate according to Preparation Example 2 and dispersed in water was sprayed to the foliage of the test plants with three replications over the top by means of a small hand sprayer at a spray volume of 5 liters per are. After cultivation for 3 weeks, herbicidal activity and phytotoxicity were examined.

barnyardgrass [3] = assay: Test Example 6, paddy pot perfusion, herbicidal activity; type: in vivo, Echinochloa crus-galli; settings: 3 weeks, dry weight
Experimental: as §1
(§5) Wagner's pots (1/5000 are) were filled with paddy field soil containing the seeds of broad-leaved weeds (e.g. monochoria, false pimpernel, toothcup) and the seeds of barnyardgrass and hardstem bulrush, and water was poured therein until the depth of water became 4 cm. Rice seedlings of the 3.5-leaf stage and the tubers of arrowhead were transplanted therein and grown for 2 days in a greenhouse. A designed amount of the test compound formulated in an emulsifiable concentrate according to Preparation Example 2 was applied to the pots by perfusion. Thereafter, the test plants were grown for an additional 3 weeks in the greenhouse, and herbicidal activity and phytotoxicity were examined. In this treatment, the emulsifiable concentrate was dispersed in water for application at a perfusion volume of 10 liters per are.

broad-leaved weed = assay: as above; type: in vivo, monochoria, false pimpernel, toothcup; settings: 3 weeks, dry weight
Experimental: as §1, §5

barnyardgrass [4] = assay: Test Example 1, foliar treatment, herbicidal activity; type: in vivo, Echinochloa crus-galli; settings: 3 weeks
Method in brief: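 Plants were sown in upland soil and grown 2 weeks in a greenhouse, then sprayed on the foliage with the compound as an emulsifiable concentrate dispersed in water with a spreading agent (5 liters per are). After 3 further weeks, aerial fresh weight relative to untreated (taken as 100) was converted to a rating.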

arrowhead [5] = assay: Test Example 7, flooded paddy pot dripping, herbicidal activity; type: in vivo, Sagittaria pygmaea; settings: 3 weeks
Experimental: as §1, §3

sicklepod [6] = assay: Test Example 3, soil surface spraying, herbicidal activity; type: in vivo, Cassia obtusifolia; settings: 20 days
Method in brief: (§6)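 Crop and weed seeds sown in upland soil; wettable-powder formulation sprayed over the soil surface pre-emergence at 5 liters per are. Plants kept 20 days in greenhouse, then aerial fresh weight expressed as % of untreated and converted to damage/activity rating scores.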

corn [7] = assay: Test Example 4, pre-emergence treatment, phytotoxicity to corn; type: in vivo; settings: 20 days
Method in brief: (§7)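 Seeds were sown in upland field soil and the compound was sprayed pre-emergence as an emulsifiable concentrate dispersed in water with spreading agent, at 5 liters per are. Plants were grown 20 days in a greenhouse. Ratings came from aerial fresh weight as a percentage of untreated plants.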

arrowhead [8] = assay: Test Example 6, paddy pot perfusion, herbicidal activity; type: in vivo, Sagittaria pygmaea; settings: 3 weeks, dry weight
Experimental: as §1, §5

sicklepod [9] = assay: Test Example 5, spraying over the top, herbicidal activity; type: in vivo, Cassia obtusifolia; settings: sprayed over the top, 20 days
Experimental: as §1, §2

Johnsongrass = assay: Test Example 4, pre-emergence treatment, herbicidal activity; type: in vivo, Sorghum halepense; settings: 20 days
Method in brief: as §7

tall morningglory [10] = assay: Test Example 3, soil surface spraying, herbicidal activity; type: in vivo, Ipomoea purpurea; settings: 20 days
Method in brief: as §6

green foxtail = assay: Test Example 4, pre-emergence treatment, herbicidal activity; type: in vivo, Setaria viridis; settings: 20 days
Method in brief: as §7

corn [11] = assay: Test Example 2, field foliar treatment, phytotoxicity to corn; type: in vivo; settings: 3 weeks
Experimental: as §1, §4
Note: ranges in brackets are in %.

SMILES | Herbicidal activity, Jimsonweed (jimsonweed; 10 g/are) | Herbicidal activity, Jimsonweed (jimsonweed; 20 g/are) | Herbicidal activity, Tall morningglory (tall morningglory [2]; 0.63 g/are) | Herbicidal activity, Tall morningglory (tall morningglory [2]; 1.25 g/are) | Herbicidal activity, Barnyardgrass (barnyardgrass [3]; 1.25 g/are) | Herbicidal activity, Barnyardgrass (barnyardgrass [3]; 2.5 g/are) | Herbicidal activity, Broad-leaved weed (broad-leaved weed; 1.25 g/are) | Herbicidal activity, Broad-leaved weed (broad-leaved weed; 2.5 g/are) | Herbicidal activity, Barnyardgrass (barnyardgrass [4]; 1.25 g/are) | Herbicidal activity, Barnyardgrass (barnyardgrass [4]; 5 g/are) | Herbicidal activity, Sicklepod (sicklepod [6]; 5 g/are) | Herbicidal activity, Sicklepod (sicklepod [6]; 10 g/are) | Herbicidal activity, Arrowhead (arrowhead [8]; 1.25 g/are) | Herbicidal activity, Arrowhead (arrowhead [8]; 2.5 g/are) | Herbicidal activity, Sicklepod (sicklepod [9]; 10 g/are) | Herbicidal activity, Sicklepod (sicklepod [9]; 20 g/are) | Herbicidal activity, Tall morningglory (tall morningglory [10]; 5 g/are) | Herbicidal activity, Tall morningglory (tall morningglory [10]; 10 g/are) | Phytotoxicity, Corn (corn [11]; 0.63 g/are) | Phytotoxicity, Corn (corn [11]; 1.25 g/are) | also measured
O=C1C2=C(CCCC2)C(=O)N1c1ccc(Cl)cc1F [A, 2-fluoro-4-chlorophenyltetrahydrophthalimide, reference compound] | 4 (1-10) | 5 (0) | 2 (21-40) | 2 (21-40) | 1 (41-60) | 2 (21-40) | 5 (0) | 5 (0) | 1 (41-60) | 3 (11-20) | 0 (61-100) | 1 (41-60) | 0 (61-100) | 0 (61-100) | 1 (41-60) | 2 (21-40) | 0 (61-100) | 0 (61-100) | 0 (100) | 1 (90-99) | Herbicidal activity, Barnyardgrass (barnyardgrass [1]; 2.5 g/are): 1 (10-29); Herbicidal activity, Barnyardgrass (barnyardgrass [1]; 5 g/are): 3 (50-69); Herbicidal activity, Barnyardgrass (barnyardgrass [1]; 10 g/are): 4 (70-89); Herbicidal activity, Allowhead (arrowhead [5]; 2.5 g/are): 2 (30-49); Herbicidal activity, Allowhead (arrowhead [5]; 5 g/are): 3 (50-69); Herbicidal activity, Allowhead (arrowhead [5]; 10 g/are): 3 (50-69); Phytotoxicity, Corn (corn [7]; 2.5 g/are): 0 (100); Phytotoxicity, Corn (corn [7]; 10 g/are): 2 (80-89); Herbicidal activity, Johnsongrass (Johnsongrass; 2.5 g/are): 1 (41-60); Herbicidal activity, Johnsongrass (Johnsongrass; 10 g/are): 3 (11-20); Herbicidal activity, Green foxtail (green foxtail; 2.5 g/are): 1 (41-60); Herbicidal activity, Green foxtail (green foxtail; 10 g/are): 4 (1-10)
CC(C)Oc1cc(N2C(=O)C3=C(CCCC3)C2=O)c(Cl)cc1Cl [B, 2,4-dichloro-5-isopropoxyphenyltetrahydrophthalimide, reference compound] | 4 (1-10) | 4 (1-10) | 3 (11-20) | 4 (1-10) | 1 (41-60) | 3 (11-20) | 5 (0) | 5 (0) | 0 (61-100) | 2 (21-40) | 0 (61-100) | 1 (41-60) | 0 (61-100) | 0 (61-100) | 0 (61-100) | 2 (21-40) | 0 (61-100) | 0 (61-100) | 1 (90-99) | 1 (90-99) | Phytotoxicity, Corn (corn [7]; 5 g/are): 0 (100); Phytotoxicity, Corn (corn [7]; 20 g/are): 1 (90-99); Herbicidal activity, Johnsongrass (Johnsongrass; 5 g/are): 1 (41-60); Herbicidal activity, Johnsongrass (Johnsongrass; 20 g/are): 2 (21-40); Herbicidal activity, Green foxtail (green foxtail; 5 g/are): 0 (61-100); Herbicidal activity, Green foxtail (green foxtail; 20 g/are): 0 (61-100)
